Test results as given in patent US20130017548A1, “SCREENING METHOD” (AJINOMOTO, INC., priority 2009, published 2013).

Key:
PIKfyve = molecular target: T1, PIKfyve (Homo sapiens, UniProt Q9Y2I7); assay: Assessment of lipid kinase inhibitory activity (competition with biotinyl acyl phosphate ATP derivative in Jurkat cell extract, LC-MS/MS); type: binding; conditions: test compound 30 nM or 300 nM, FIG. 1
T1 construct: the supernatant resulting from centrifugation at 100,000×g for 60 minutes was used as a cell extract; endogenous in cells; host or cells: Jurkat (human T-lymphocyte line), cell extract
Method: Lipid kinase inhibitory activity was assessed according to the method described in Biochemistry 2007, 46, 350-358. Jurkat cell derived from human lymphocyte was suspended in a lysis buffer (20 mM Hepes, 150 mM NaCl, 0.1% TritonX-100, 20 mM MnCl2) by sonication, and the supernatant resulting from centrifugation at 100,000×g for 60 minutes was used as a cell extract. To the cell extract (5 mg/mL), a test compound (30 nM or 300 nM) or a solvent alone was added and incubated for 5 minutes. Then, an ATP derivative labeled with biotinyl acyl phosphate (20 μM) was added and incubated for 5 minutes, and the resultant was further subjected to digestion with trypsin. […] The biotin-labeled peptide was analyzed by LC-MS/MS for sequence identification and measurement of the elution amount of the lipid-kinase-derived peptide so as to assess competitive inhibitory activity of the test compound for the binding of the ATP derivative to various lipid kinases. […]
Using this assessment system, the inhibitory activity of the test compound for other lipid kinases was assessed (other lipid kinases may be commercially available or may be produced according to a method described in a known document) and the results thereof are shown in FIG. 1.

[1] = tested on: mouse enterocolitis model; assay: Inflammation suppressive action in mouse IL-10-/- cell transfer enterocolitis model; type: in vivo; conditions: FIG. 3
Method: A method for producing a mouse IL-10^−/− cell transfer enterocolitis model is described, for example, in Gastroenterology. 2009 February; 136(2):564-74.e2. Epub 2008 Oct. 7.
Measurement of an intestine weight as a drug efficacy indicator was carried out according to the following method. On the last day for autopsy, large intestine from the anus to immediately before the cecum was removed. The content of the intestine was washed with physiological saline, water was roughly removed and then the weight was measured.
Results from the assessment of the inflammation suppressive action of Compound 1 in mouse enterocolitis model using this assessment system are shown in FIG. 3.

[2] = tested on: IL-12 and IL-23 productions; conditions: productions strongly induced by INF-γ; cited from earlier work
[3] = tested on: IL-12b expression in mouse peritoneal macrophage; assay: IL-12-production suppressive action by PIKfyve and Vac14 knockdown (siRNA, quantitative PCR); type: cell-based; conditions: siRNA 1 μM, mouse interferon-γ and SAC stimulation 3.5 hours, normalized to GAPDH; FIG. 4
Method: Assessment of the effects of knockdown of PIKfyve and Vac14 expressed in mouse peritoneal macrophage using siRNA method was carried out as described below. Mouse peritoneal macrophage was isolated according to the method described in Laboratory Test Example 2, and subsequently suspended in Nucleofection solution attached to Mouse macrophage nucleofection kit (Lonza) to give 3.3×10^6 cells/mL. siRNA was added to the cell suspension to a final concentration of 1 μM and subjected to Nucleofection according to the attached protocol. The following siRNAs were used. […]
A FBS-free RPMI1640 medium was used for culture at 37° C. in the presence of 5% CO2 for 2 hours and then the medium was replaced by 0.5 ml of Dulbecco's MEM medium containing RPMI 1640 medium supplemented with 3% FBS for culture at 37° C. in the presence of 5% CO2 for 4 hours. Subsequently, 3.3 ng/mL mouse interferon-γ and 0.0017% (v/v) SAC were added and cultured for 3.5 hours and then the expression level of cytokine mRNA in the cell was measured.
Extraction and purification of total RNA from the mouse peritoneal macrophage was carried out using RNeasy midi kit (Qiagen 75144) according to the attached protocol. […] The resultant removed of the remaining […] was used as cDNA for quantitative PCR. […]

T1 sequence (Q9Y2I7 whole entry): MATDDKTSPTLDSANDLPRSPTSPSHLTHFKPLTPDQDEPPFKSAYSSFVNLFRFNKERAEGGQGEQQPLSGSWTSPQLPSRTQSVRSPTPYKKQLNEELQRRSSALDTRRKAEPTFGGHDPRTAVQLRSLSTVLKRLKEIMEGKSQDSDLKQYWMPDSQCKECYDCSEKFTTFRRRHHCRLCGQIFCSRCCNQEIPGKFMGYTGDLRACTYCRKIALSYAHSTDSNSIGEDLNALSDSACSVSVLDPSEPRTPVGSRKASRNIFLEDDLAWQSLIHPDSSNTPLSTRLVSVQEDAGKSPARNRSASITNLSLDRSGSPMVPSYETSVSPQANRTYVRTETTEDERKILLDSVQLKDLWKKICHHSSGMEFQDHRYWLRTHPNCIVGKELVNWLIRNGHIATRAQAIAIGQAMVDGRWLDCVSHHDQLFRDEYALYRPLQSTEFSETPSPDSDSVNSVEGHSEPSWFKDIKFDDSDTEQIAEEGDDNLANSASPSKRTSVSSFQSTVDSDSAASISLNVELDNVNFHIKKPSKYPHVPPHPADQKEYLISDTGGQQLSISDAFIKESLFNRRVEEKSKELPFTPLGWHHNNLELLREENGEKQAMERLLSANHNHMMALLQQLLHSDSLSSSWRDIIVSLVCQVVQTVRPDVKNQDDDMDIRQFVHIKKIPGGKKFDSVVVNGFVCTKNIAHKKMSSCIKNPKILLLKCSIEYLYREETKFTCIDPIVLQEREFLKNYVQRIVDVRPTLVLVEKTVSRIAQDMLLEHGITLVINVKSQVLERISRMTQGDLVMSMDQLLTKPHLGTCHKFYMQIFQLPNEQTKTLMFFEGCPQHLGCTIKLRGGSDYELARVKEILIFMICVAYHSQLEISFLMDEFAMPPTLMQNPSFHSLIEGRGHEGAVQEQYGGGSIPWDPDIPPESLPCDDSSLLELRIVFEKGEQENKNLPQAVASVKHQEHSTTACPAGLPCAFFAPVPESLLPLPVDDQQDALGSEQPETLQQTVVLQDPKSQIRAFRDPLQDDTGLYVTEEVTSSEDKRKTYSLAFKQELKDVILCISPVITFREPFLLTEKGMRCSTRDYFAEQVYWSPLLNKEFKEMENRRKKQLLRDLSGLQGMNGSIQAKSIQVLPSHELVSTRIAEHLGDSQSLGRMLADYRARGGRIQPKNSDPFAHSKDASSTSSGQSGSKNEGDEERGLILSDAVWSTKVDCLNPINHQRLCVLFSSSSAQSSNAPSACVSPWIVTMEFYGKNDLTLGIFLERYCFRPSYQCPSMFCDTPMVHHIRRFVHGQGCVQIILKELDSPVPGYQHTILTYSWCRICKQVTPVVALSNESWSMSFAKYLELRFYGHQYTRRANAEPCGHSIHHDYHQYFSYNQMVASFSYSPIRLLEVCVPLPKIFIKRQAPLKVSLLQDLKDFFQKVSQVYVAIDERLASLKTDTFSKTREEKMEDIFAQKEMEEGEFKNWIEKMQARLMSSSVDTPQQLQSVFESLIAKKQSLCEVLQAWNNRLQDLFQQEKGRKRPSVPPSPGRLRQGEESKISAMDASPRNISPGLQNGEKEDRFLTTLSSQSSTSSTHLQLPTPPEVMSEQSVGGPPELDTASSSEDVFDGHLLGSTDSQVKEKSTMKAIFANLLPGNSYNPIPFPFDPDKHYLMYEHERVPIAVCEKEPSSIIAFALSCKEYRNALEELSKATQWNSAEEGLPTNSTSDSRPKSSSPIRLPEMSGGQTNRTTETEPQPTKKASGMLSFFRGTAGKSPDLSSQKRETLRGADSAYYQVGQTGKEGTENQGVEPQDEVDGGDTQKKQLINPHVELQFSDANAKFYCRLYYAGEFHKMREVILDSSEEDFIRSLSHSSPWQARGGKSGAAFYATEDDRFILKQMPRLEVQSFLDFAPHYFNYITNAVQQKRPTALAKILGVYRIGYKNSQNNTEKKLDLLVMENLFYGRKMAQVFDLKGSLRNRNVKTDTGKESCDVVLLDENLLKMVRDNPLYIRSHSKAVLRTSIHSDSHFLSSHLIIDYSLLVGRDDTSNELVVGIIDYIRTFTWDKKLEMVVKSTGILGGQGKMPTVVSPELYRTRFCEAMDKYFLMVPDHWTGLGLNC

## Cc1cccc(C=NNc2cc(N3CCOCC3)n3nc(-c4ccncc4)cc3n2)c1 [Compound 1, N-(3-METHYL-BENZYLIDENE)-N′-(7-MORPHOLINE-4-YL-2-PYRIDINE-4-YL-PYRAZOLO[1,5-A]PYRIMIDINE-5-YL)-HYDRAZINE]
PIKfyve
  inhibitory activity against various lipid kinases (selectivity): inhibitory activity selective to PIKfyve
[1]; 3, 10, 30 mg/kg, increase by IL-10-/- cell transfer
  weight of the large intestine: suppressed dependent on the dosage
[1]; administration group of 30 mg/kg, once a day
  suppressive action on large intestine weight: Significant suppressive action

## C(=NNc1cc(N2CCOCC2)n2nc(-c3ccncc3)cc2n1)c1ccc2cc[nH]c2c1 [Compound 2, N-(1H-INDOLE-6-YLMETHYLENE)-N′-(7-MORPHOLINE-4-YL-2-PYRIDINE-4-YL-PYRAZOLO[1,5-A]PYRIMIDINE-5-YL)-HYDRAZINE]
PIKfyve
  inhibitory activity against various lipid kinases (selectivity): inhibitory activity selective to PIKfyve

## O=C1CCC(N2C(=O)c3ccccc3C2=O)C(=O)N1 (stereo not drawn) [thalidomide]
[2]
  suppression of IL-12 and IL-23 productions: cannot sufficiently suppress

## Vac14 siRNA: Silencer Select Pre-designed siRNA (Sense SEQ ID NO: 11, Antisense SEQ ID NO:12, Ambion, s107929) as Vac14 siRNA (sense GAUUUACUCCAACAACCAATT; antisense UUGGUUGUUGGAGUAAAUCCT; chemistry not given here)
[3]
  IL-12b expression (fold-change over basal): significantly suppressed
